According to paper PMC7751940, “Synthesis, characterization and evaluation of antidengue activity of enantiomeric Schiff bases derived from S-substituted dithiocarbazate” (Turkish Journal of Chemistry, 2020):
Where two headings read alike, the source gives them in different places.

Tests used:
[1] = MTT cytotoxicity assay; format: cell-based; details: African green monkey (Chlorocebus sp.), Vero cells (kidney), four days incubation, Table 4
Experimental: (§1) Aedes albopictus clone C6/36 cells were maintained to propagate the dengue virus type 2 (DENV 2); African green monkey ( Chlorocebus sp.) kidney Vero cells were grown for antiviral analysis. Both cells were grown in Eagle’s Minimum Essential Medium (EMEM) (Biowest LLC, Riverside, MO, USA) with 10% Fetal Bovine Serum (FBS) (Biowest LLC).
The 96-well plates were seeded with 100 µL of Vero cell suspension at a density of 1 × 10^5 cells / mL and the next day were treated with different dilutions of the synthesized compounds. Control wells were treated with only the vehicle media used to prepare the antiviral dilutions. Plates were incubated for four days at 37 °C. Following the addition of 15 μL of MTT (Sigma-Aldrich Corp., St. Louis, MO, USA) solution into each well, the plates were incubated at 37 °C for another 4 h. Subsequently, the medium was carefully aspirated from all the wells and 100 μL of DMSO was added to each well [26]. The optical density (OD) of the wells was measured at 570 nm using a 96-well plate reader (Tecan Group AG, Männedorf, Switzerland). The percentage cell viability was calculated against the untreated controls. Dose-response curves were plotted. Half maximal cytotoxic concentration (CC50) was calculated using Graph Pad Prism for Windows, Version 5 (GraphPad Software Inc., San Diego, CA, USA).

[2] = system: DENV 2; assay: CPE reduction-based antiviral assay (primary evaluation); format: cell-based, dengue virus type 2 (DENV 2); design: key: ++++ for total reduction; +++ for 75% reduction; ++ for 50% reduction; + for less than 50% reduction; -- for no reduction; details: DENV 2-infected Vero cells, treated after 1 h viral adsorption, graded per Kudi and Myint
Experimental: as §1
Ribavirin tablets (Copegus, 200 mg, Genentech, Inc., South San Francisco, CA, USA) were purchased and stock solutions were stored. Dilutions were prepared in 2% FBS (maintenance media) at the time of assay. TCID50 assay was employed to measure the titer of the virus stocks for antiviral evaluation following standard methods. The viral CPE was observed on the third and fourth days and observations were recorded based on the Reed–Muench method.
Plates were seeded with Vero cell suspension (100 µL) at a density of 1 × 10^5 cells/mL one day before the wells were treated with TCID50 (100 µL) dilution of the DENV 2 stock and untreated control wells were maintained in parallel. After 1 h of viral adsorption, unbound viruses were washed and different antiviral dilutions were added. These plates were further incubated for 4 more days and were observed daily. Observations were recorded on the third and fourth days. The wells were marked for CPE reduction according to the grading system defined by Kudi and Myint.

[3] = system: DENV 2; assay: Foci forming unit reduction assay (FFURA, secondary evaluation); format: cell-based, dengue virus type 2 (DENV 2); details: for Selectivity index CC50/IC50: CC50 (Vero, MTT) / IC50 (FFURA, DENV 2); for reduction in the number of foci: three different dilutions; for IC50: Dengue virus, 96 h, read-out: IC50 ± SE
Experimental: as §1
Antiviral activity was quantitatively validated by measuring the reduction in the number of DENV infectious foci after 4 days of treatment. DENV 2 infected Vero cells were treated with different antiviral dilutions supplemented with 2% FBS and 1.5% carboxymethyl cellulose (CMC). Virus foci were stained and visualized according to the published protocol. The number of foci was counted through stereomicroscope and virus titer was stated as foci forming unit (FFU). To calculate the antiviral activity of antidengue compounds, the percentage reduction in foci (%RF) was calculated between the treated, and untreated wells maintained in parallel. The assay was repeated three times, dose-response curves were plotted and half […] inhibitory concentration (IC50) and selectivity index (SI) were calculated.

[4] = DENV 2 infected Vero cells, foci reduction after 4 days of treatment

In the case of `CC1(C)[C@@H]2CC[C@@]1(C)/C(=N/NC(=S)SCc1ccccc1)C2` [SBRCM, Benzyl (E)-2-((1R,4R)-1,7,7-trimethylbicyclo[2.2.1]heptan-2-ylidene)hydrazine-1-carbodithioate], the CC50 at 4 days [1] is reported as 81.7 ± 4.4 µM, the CPE reduction [2] is reported as “++ (++ for 50% reduction)” and the “Selectivity index CC50/IC50” value [3] is reported as 10.4. For the same compound, the “reduction in the number of foci” value ([3]; DENV 2 infected Vero cells) was “reduction in the number of foci appearance” and the IC50 [3, 4] was 7.8 ± 4.5 µM.

With `C=C(C)[C@@H]1CC=C(C)/C(=N/NC(=S)SCc2ccccc2)C1` [SBRCV, Benzyl (R,E)-2-(2-methyl-5-(prop-1-en-2-yl)cyclohex-2-en-1-ylidene)hydrazine-1-carbodithioate] the CC50 at 4 days [1] was 28.5 ± 3.9 µM and the CPE reduction [2] was “+ (+ for less than 50% reduction)”.

In the case of `CC1(C)[C@H]2CC[C@]1(C)/C(=N/NC(=S)SCc1ccccc1)C2` [SBSCM, Benzyl (E)-2-((1S,4S)-1,7,7-trimethylbicyclo[2.2.1]heptan-2-ylidene)hydrazine-1-carbodithioate], the CC50 at 4 days [1] is reported as 87.2 ± 5.9 µM, the CPE reduction [2] is reported as “++ (++ for 50% reduction)” and the “Selectivity index CC50/IC50” value [3] is reported as 12.8. For the same compound, the “reduction in the number of foci” value ([3]; DENV 2 infected Vero cells) was “reduction in the number of foci appearance” and the IC50 [3, 4] was 6.8 ± 2.3 µM.

With `C=C(C)[C@H]1CC=C(C)/C(=N/NC(=S)SCc2ccccc2)C1` [SBSCV, Benzyl (S,E)-2-(2-methyl-5-(prop-1-en-2-yl)cyclohex-2-en-1-ylidene)hydrazine-1-carbodithioate] the CC50 at 4 days [1] was 29.2 ± 6.4 µM and the CPE reduction [2] was “+ (+ for less than 50% reduction)”.

In the case of `CSC(=S)N/N=C1\C[C@H]2CC[C@]1(C)C2(C)C` [SMRCM, Methyl (E)-2-((1R,4R)-1,7,7-trimethylbicyclo[2.2.1]heptan-2-ylidene)hydrazine-1-carbodithioate], the CC50 at 4 days [1] is reported as 88.4 ± 3.8 µM, the CPE reduction [2] is reported as “++ (++ for 50% reduction)” and the “Selectivity index CC50/IC50” value [3] is reported as 12.8. The “reduction in the number of foci” value ([3]; DENV 2 infected Vero cells) was “reduction in the number of foci appearance” and the IC50 [3, 4] was 6.9 ± 1.2 µM.

With `C=C(C)[C@@H]1CC=C(C)/C(=N/NC(=S)SC)C1` [SMRCV, Methyl (R,E)-2-(2-methyl-5-(prop-1-en-2-yl)cyclohex-2-en-1-ylidene)hydrazine-1-carbodithioate] the CC50 at 4 days [1] was 31.1 ± 8 µM and the CPE reduction [2] was “--”.

With `CSC(=S)N/N=C1\C[C@@H]2CC[C@@]1(C)C2(C)C` [SMSCM, Methyl (E)-2-((1S,4S)-1,7,7-trimethylbicyclo[2.2.1]heptan-2-ylidene)hydrazine-1-carbodithioate] the CC50 at 4 days [1] was 88.7 ± 2 µM, the CPE reduction [2] was “++ (++ for 50% reduction)” and the “Selectivity index CC50/IC50” value [3] was 14.3. For the same compound, the “reduction in the number of foci” value ([3]; DENV 2 infected Vero cells) was “reduction in the number of foci appearance” and the IC50 [3, 4] was 6.2 ± 3.2 µM.

With `CSC(=S)N/N=C1\C(=O)[C@@]2(C)CC[C@@H]1C2(C)C` [SMSCQ, Methyl (Z)-2-((1R,4S)-4,7,7-trimethyl-3-oxobicyclo[2.2.1]heptan-2-ylidene)hydrazine-1-carbodithioate] the CC50 at 4 days [1] was 69.2 ± 5.9 µM, the CPE reduction [2] was “+ (+ for less than 50% reduction)” and the “reduction in the number of foci” value ([3]; DENV 2 infected Vero cells) was “reduction in the number of foci appearance”. It also gave an IC50 ([3]; Vero) of 6.8 ± 2.8 µM.

In the case of `C=C(C)[C@H]1CC=C(C)/C(=N/NC(=S)SC)C1` [SMSCV, Methyl (S,E)-2-(2-methyl-5-(prop-1-en-2-yl)cyclohex-2-en-1-ylidene)hydrazine-1-carbodithioate], the CC50 at 4 days [1] is reported as 24.5 ± 9.2 µM and the CPE reduction [2] is reported as “--”.
